Measured values reported in patent US12376590B2, “Compositions comprising pyridine carboxylate herbicides and azole carboxylate safeners” (Corteva Agriscience LLC, priority 2018, dated 2025).

Assays:
Assay in all cases: Greenhouse postemergence herbicidal safening trial, visual injury after 20-22 d
Conditions in all cases: applied alone
Canada thistle (CIRAR) = type: in vivo, Cirsium arvense
Excerpt: (§1) Greenhouse Trial Methodology—Evaluation of Postemergence Herbicidal Safening in Crops
(§2) Seeds of the desired test plant species were planted in a 90:10% v/v (volume/volume) mixture of PRO-MIX® BX (Premier Tech Horticulture, Quakertown, PA, USA) and PROFILE® GREENS GRADE™ (Profile Products LLC, Buffalo Grove, IL, USA) planting mixture, which typically has a pH of 5.2 to 6.2 and an organic matter content of at least 50 percent, in plastic pots with a surface area of 103.2 square centimeters (cm^2). When required to ensure good germination and healthy plants, a fungicide treatment and/or other chemical or physical treatment was applied. The plants were grown for 7-36 days (d) in a greenhouse with an approximate 14-hour (h) photo-period which was maintained at about 23° C. during the day and 22° C. during the night. Nutrients and water were added on a regular basis and supplemental lighting was provided with overhead metal halide 1000-Watt lamps as necessary. The plants were employed for testing when they reached the second or third true leaf stage.
(§3) Emulsifiable concentrates of each of each pyridine carboxylate herbicide (Compound A or Compound B) were prepared at 100 grams acid equivalent per liter (g ae/L). An aliquot of each emulsifiable concentrate was placed in a 25 mL glass vial and diluted with an aqueous mixture of 1.25% (v/v) ACTIROB® B esterified rapeseed oil (Bayer Crop Science, Research Triangle Park, NC, USA) or MSO® Concentrate with LECI-TECH® methylated soybean oil (Loveland Products, Loveland, CO, USA) to obtain concentrated stock solutions at the highest application rate for each herbicide, based upon a 12 milliliter (mL) application volume at a rate of 187 liters per hectare (L/ha). The concentrated stock solutions were further diluted with an aqueous mixture of 1.25% v/v ACTIROB® B or MSO® Concentrate with LECI-TECH® to obtain stock solutions at reduced application rates for each herbicide. Spray solutions of the herbicide combinations (Compound A or Compound B plus safener) were prepared by adding weighed amounts or aliquots of the azole carboxylate safener to the stock solutions of Compound A or Compound B to form 12-mL spray solutions in two-way combinations.
(§4) The spray solutions were applied to the plant material with an overhead Mandel track sprayer equipped with 8002E nozzles calibrated to deliver 187 L/ha over an application area of 0.503 square meters (m^2) at a spray height of 18 inches (43 centimeters (cm)) above the average plant canopy. Control plants were sprayed in the same manner with the solvent blank. All herbicide (component a) application rates are given as “g ae/ha” and all safener (component b) application rates are given as “g ai/ha.”
(§5) The treated plants and control plants were placed in a greenhouse as described above and watered by sub-irrigation to prevent wash-off of the test compounds. After 20-22 d, the condition of the test plants as compared with that of the control plants was determined visually and scored on a scale of 0 to 100 percent where 0 corresponds to no injury and 100 corresponds to complete kill.

[1] = system: Chinese sprangletop (LEFCH); type: in vivo, Leptochloa chinensis
Excerpt: as §1, §2, §3, §4, §5

barnyardgrass (ECHCG) = type: in vivo, Echinochloa crus-galli
Excerpt: as §1, §2, §3, §4, §5

Canada horseweed (ERICA) = type: in vivo, Erigeron canadensis
Excerpt: as §1, §2, §3, §4, §5

Italian ryegrass (LOLMU) = type: in vivo, Lolium multiflorum
Excerpt: as §1, §2, §3, §4, §5

common rice (ORYSA) = type: in vivo, Oryza sativa
Excerpt: as §1, §2, §3, §4, §5

common sunflower (HELAN) = type: in vivo, Helianthus annuus
Excerpt: as §1, §2, §3, §4, §5

kochia (KCHSC) = type: in vivo, Kochia scoparia
Excerpt: as §1, §2, §3, §4, §5

[2] = system: herbicide-resistant kochia (KCHSC-R); type: in vivo, Kochia scoparia
Excerpt: as §1, §2, §3, §4, §5

pigweed (AMARE) = type: in vivo, Amaranthus retroflexus
Excerpt: as §1, §2, §3, §4, §5

velvetleaf (ABUTH) = type: in vivo, Abutilon theophrasti
Excerpt: as §1, §2, §3, §4, §5

giant foxtail (SETFA) = type: in vivo, Setaria faberi
Excerpt: as §1, §2, §3, §4, §5

wild oat (AVEFA) = type: in vivo, Avena fatua
Excerpt: as §1, §2, §3, §4, §5

wild pansy (VIOTR) = type: in vivo, Viola tricolor
Excerpt: as §1, §2, §3, §4, §5

Johnson grass (SORHA) = type: in vivo, Sorghum halepense
Excerpt: as §1, §2, §3, §4, §5

nutsedge (CYPES) = type: in vivo, Cyperus esculentus
Excerpt: as §1, §2, §3, §4, §5

winter rape (BRSNW) = type: in vivo, Brassica napus
Excerpt: as §1, §2, §3, §4, §5

[3] = system: ivyleaf morningglory (IPOHE); type: in vivo, Ipomoea hederacea
Excerpt: as §1, §2, §3, §4, §5

blackgrass (ALOMY) = type: in vivo, Alopecurus myosuroides
Excerpt: as §1, §2, §3, §4, §5

winter wheat (TRZAW) = type: in vivo, Triticum aestivum
Excerpt: as §1, §2, §3, §4, §5

maize (ZEAMX) = type: in vivo, Zea mays
Excerpt: as §1, §2, §3, §4, §5

[4] = system: common lambsquarters (CHEAL); type: in vivo, Chenopodium album L.
Excerpt: as §1, §2, §3, §4, §5

large crabgrass (DIGSA) = type: in vivo, Digitaria sanguinalis
Excerpt: as §1, §2, §3, §4, §5

wild buckwheat (POLCO) = type: in vivo, Polygonum convolvulus
Excerpt: as §1, §2, §3, §4, §5

soybean (GLXMA) = type: in vivo, Glycine max
Excerpt: as §1, §2, §3, §4, §5

Measured: % visual injury Ob

O=C(O)c1nc(C(Cl)(Cl)Cl)n(-c2ccc(Cl)cc2Cl)n1 [Fenchlorazole, fenchlorazole]
0%: Canada thistle (CIRAR); 20 g/ha | Canada thistle (CIRAR); 40 g/ha | Canada thistle (CIRAR); 80 g/ha | [1]; 20 g/ha | [1]; 40 g/ha | [1]; 80 g/ha | barnyardgrass (ECHCG); 20 g/ha | barnyardgrass (ECHCG); 40 g/ha | barnyardgrass (ECHCG); 80 g/ha | Canada horseweed (ERICA); 20 g/ha | Canada horseweed (ERICA); 40 g/ha | Canada horseweed (ERICA); 80 g/ha | Italian ryegrass (LOLMU); 20 g/ha | Italian ryegrass (LOLMU); 40 g/ha | Italian ryegrass (LOLMU); 80 g/ha | common rice (ORYSA); 20 g/ha | common rice (ORYSA); 40 g/ha | common rice (ORYSA); 80 g/ha | common sunflower (HELAN); 20 g/ha | common sunflower (HELAN); 40 g/ha | common sunflower (HELAN); 80 g/ha | kochia (KCHSC); 20 g/ha | kochia (KCHSC); 40 g/ha | kochia (KCHSC); 80 g/ha | [2]; 20 g/ha | [2]; 40 g/ha | [2]; 80 g/ha | pigweed (AMARE); 20 g/ha | pigweed (AMARE); 40 g/ha | pigweed (AMARE); 80 g/ha | velvetleaf (ABUTH); 20 g/ha | velvetleaf (ABUTH); 40 g/ha | velvetleaf (ABUTH); 80 g/ha | giant foxtail (SETFA); 20 g/ha | giant foxtail (SETFA); 40 g/ha | giant foxtail (SETFA); 80 g/ha | wild oat (AVEFA); 20 g/ha | wild oat (AVEFA); 40 g/ha | wild oat (AVEFA); 80 g/ha | wild pansy (VIOTR); 20 g/ha | wild pansy (VIOTR); 40 g/ha | wild pansy (VIOTR); 80 g/ha | Johnson grass (SORHA); 20 g/ha | Johnson grass (SORHA); 40 g/ha | Johnson grass (SORHA); 80 g/ha | nutsedge (CYPES); 20 g/ha | nutsedge (CYPES); 40 g/ha | nutsedge (CYPES); 80 g/ha | winter rape (BRSNW); 20 g/ha | winter rape (BRSNW); 40 g/ha | winter rape (BRSNW); 80 g/ha | [3]; 20 g/ha | [3]; 40 g/ha | [3]; 80 g/ha | blackgrass (ALOMY); 20 g/ha | blackgrass (ALOMY); 40 g/ha | blackgrass (ALOMY); 80 g/ha | winter wheat (TRZAW); 20 g/ha | winter wheat (TRZAW); 40 g/ha | winter wheat (TRZAW); 80 g/ha | maize (ZEAMX); 20 g/ha | maize (ZEAMX); 40 g/ha | maize (ZEAMX); 80 g/ha | [4]; 20 g/ha | [4]; 40 g/ha | [4]; 80 g/ha | large crabgrass (DIGSA); 20 g/ha | large crabgrass (DIGSA); 40 g/ha | large crabgrass (DIGSA); 80 g/ha | wild buckwheat (POLCO); 20 g/ha | wild buckwheat (POLCO); 40 g/ha | wild buckwheat (POLCO); 80 g/ha | soybean (GLXMA); 20 g/ha | soybean (GLXMA); 40 g/ha | soybean (GLXMA); 80 g/ha
